Data taken from ChEMBL document CHEMBL5136985, “Natural and synthetic β-carboline as a privileged antifungal scaﬀolds” (Eur J Med Chem, 2022).
≈ marks a conversion by molar mass, not a printed value. Each block holds one compound with its values, some of them ahead of it.

Tests used:
[1] = tested on: Alternaria solani; experiment: Antifungal activity against Alternaria solani relative to control; format: functional; parameters: concentration or dose not given beside the values
[2] = tested on: Bipolaris maydis; experiment: Antifungal activity against Bipolaris maydis relative to control; format: functional; parameters: concentration or dose not given beside the values
[3] = tested on: Candida albicans; experiment: Antifungal activity against Candida albicans; format: functional, organism-based; details: for MIC: Candida albicans
[4] = tested on: Pichia kudriavzevii; experiment: Antifungal activity against Candida krusei; format: functional
[5] = tested on: Candida tropicalis; experiment: Antifungal activity against Candida tropicalis; format: functional
[6] = tested on: Candida parapsilosis; experiment: Antifungal activity against Candida parapsilosis; format: functional; details: Lodderomyces parapsilosis
[7] = tested on: Kluyveromyces marxianus; experiment: Antifungal activity against Candida kefyr; format: functional
[8] = tested on: Nakaseomyces glabratus; experiment: Antifungal activity against Candida glabrata; format: functional
[9] = tested on: Cryptococcus neoformans; experiment: Antifungal activity against Cryptococcus neoformans; format: functional
[10] = tested on: Rhizoctonia solani; experiment: Antifungal activity against Rhizoctonia solani; format: functional, organism-based
[11] = tested on: Candida albicans; experiment: Antifungal activity against Candida albicans incubated for 24 hrs by well diffusion method; format: functional
[12] = tested on: Trichophyton interdigitale; experiment: Antifungal activity against Trichophyton interdigitale; format: functional
[13] = tested on: Sclerotinia; experiment: Antifungal activity against rape Sclerotinia rot at 50 ug/ml relative to control; format: functional; details: for Activity: dose 50 µg/ml
[14] = tested on: Sclerotinia; experiment: Antifungal activity against sunflower Sclerotinia rot at 50 ug/ml relative to control; format: functional; details: dose 50 µg/ml
[15] = tested on: Curvularia lunata; experiment: Antifungal activity against Curvularia lunata; format: functional, organism-based
[16] = tested on: Colletotrichum gloeosporioides; experiment: Antifungal activity against Colletotrichum gloeosporioides; format: functional
[17] = tested on: Cytospora mali; experiment: Antifungal activity against Valsa mali; format: functional
[18] = tested on: Alternaria alternata; experiment: Antifungal activity against Alternaria alternata; format: functional
[19] = tested on: Alternaria brassicae; experiment: Antifungal activity against Alternaria brassicae; format: functional
[20] = tested on: Sclerotinia sclerotiorum; experiment: Antifungal activity against Sclerotinia sclerotiorum; format: functional, organism-based
[21] = tested on: Fusarium solani; experiment: Antifungal activity against Fusarium solani; format: functional, organism-based
[22] = tested on: Phytophthora litchii; experiment: Antifungal activity against Phytophthora litchii assessed as inhibition of growth rate at 100 mg/L relative to control; format: functional
[23] = tested on: Gaeumannomyces graminis; experiment: Antifungal activity against Gaeumannomyces graminis; format: functional, organism-based
[24] = tested on: Aspergillus niger; experiment: Antifungal activity against Aspergillus niger assessed as inhibition of growth rate at 100 ug/ml by disc diffusion method relative to control; format: functional
[25] = tested on: Bipolaris oryzae; experiment: Antifungal activity against Helminthosporium oryzae assessed as inhibition of growth rate at 100 ug/ml by disc diffusion method relative to control; format: functional

Compound: Cc1nccc2c1[nH]c1cc(O)ccc12
Activity [1]: 26.3% | Activity [2]: 31.8%

Compound: Cc1nccc2c1[nH]c1ccc(Br)cc12
Activity [1]: 73.7% | Activity [2]: 86.4%

EC50 [3]: 0.5 uM/ml
Compound: C[n+]1ccc2c3ccccc3n(-n3c4ccccc4c4cc[n+](C)cc43)c2c1.[I-].[I-]

EC50 [3]: > 1 uM/ml
Compound: c1ccc2c(c1)c1ccncc1n2-n1c2ccccc2c2ccncc21

MIC [3]: > 94.7 µg/mL | MIC [4]: > 94.7 µg/mL | MIC [5]: > 94.7 µg/mL | MIC [6]: > 94.7 µg/mL | MIC [7]: 23.7 µg/mL (≈ 69.1 µM) | MIC [8]: 23.7 µg/mL (≈ 69.1 µM) | MIC [9]: 14.8 µg/mL (≈ 43.2 µM)
Compound: CCCCCCCC[C@@H]1N[C@H](C(=O)OC)Cc2c1[nH]c1ccccc21

MIC [3]: 14.8 µg/mL (≈ 43.2 µM) | MIC [4]: 7.41 µg/mL (≈ 21.6 µM) | MIC [5]: 7.41 µg/mL (≈ 21.6 µM) | MIC [6]: 14.8 µg/mL (≈ 43.2 µM) | MIC [7]: 3.67 µg/mL (≈ 10.7 µM) | MIC [8]: 3.67 µg/mL (≈ 10.7 µM) | MIC [9]: 7.41 µg/mL (≈ 21.6 µM)
Compound: CCCCCCCC[C@H]1N[C@H](C(=O)OC)Cc2c1[nH]c1ccccc21

EC50 [10]: 277 µg/mL (≈ 586 µM)
Compound: COc1ccc(-c2nc(NC(=O)NC(=O)c3c(F)cccc3F)cc3c2[nH]c2ccccc23)cc1

MIC [11]: 8.6 µg/mL (≈ 18.3 µM) | MIC [3]: 8.6 µg/mL (≈ 18.3 µM)
Compound: C=CCCCCCCCCCOC(=O)c1cc2c([nH]c3ccccc32)c(-c2ccc(OC)cc2)n1

MIC [12]: 12.5 µg/mL (≈ 46.9 µM)
Compound: CCCCCCCc1nccc2c1[nH]c1ccccc12

Compound: Fc1ccc(Cn2c3ccccc3c3ccnc(-c4nc5ccccc5[nH]4)c32)cc1
Activity [13]: 79.89%

Compound: Cc1nccc2c3ccccc3n(Cc3cn(-c4ccc(C(F)(F)F)cc4)nn3)c12
Activity [14]: 86.93%

EC50 [15]: 6.73 µg/mL (≈ 30.6 µM)
Compound: C#CCn1c2ccccc2c2cc(C)ncc21

MIC [12]: 25 µg/mL (≈ 99.1 µM)
Compound: CCCCCCc1nccc2c1[nH]c1ccccc12

Compound: Cc1nccc2c1[nH]c1cc(OC(=O)NC(C)C)ccc12
Activity [1]: 21.1% | Activity [2]: 22.7%

MIC [12]: 50 µg/mL (≈ 210 µM)
Compound: CCC(C)Cc1nccc2c1[nH]c1ccccc12 (stereo not drawn)

MIC [16]: 12.5 µg/mL (≈ 32.3 µM) | MIC [17]: 12.5 µg/mL (≈ 32.3 µM) | MIC [18]: 12.5 µg/mL (≈ 32.3 µM) | MIC [19]: 6.25 µg/mL (≈ 16.1 µM)
Compound: O=C1[C@@H]2Cc3c([nH]c4ccccc34)C(c3ccc(O)cc3)N2C(=O)[C@@H]2CCCN12 (stereo partly drawn)

EC50 [20]: 12 µM
Compound: c1ccc(C[C@@H]2COC(c3nccc4c3[nH]c3ccccc34)=N2)cc1

EC50 [21]: 5.44 µM
Compound: Cc1ccc2c(c1)c1c(n2C)C=[N+](c2ccc(F)cc2)CC1

EC50 [21]: 2.67 µM
Compound: Cc1cccc([N+]2=Cc3c(c4cc(C)ccc4n3C)CC2)c1

Compound: CCCCn1c2ccccc2c2ccnc(-c3nc4ccccc4[nH]3)c21
Activity [13]: 80.46%

EC50 [20]: 17.3 µM
Compound: c1ccc([C@@H]2COC(c3nccc4c3[nH]c3ccccc34)=N2)cc1

Compound: c1ccc(Cn2c3ccccc3c3ccnc(-c4nc5ccccc5[nH]4)c32)cc1
inhibition at 50 µg/mL ([13]; Sclerotinia): 88.5%

Compound: O=C(Nc1ccccn1)c1cc2c([nH]c3ccccc32)c(-c2ccccc2)n1
inhibition at 100 µg/mL [22]: 95.9%

EC50 [23]: 2.85 µM
Compound: CC(C)c1nc(C(N)=O)cc2c1[nH]c1ccccc12

EC50 [21]: 3.03 µM
Compound: Cc1cccc([N+]2=Cc3c(c4ccccc4n3C)CC2)c1

EC50 [20]: 11.9 µM
Compound: O=C(O)c1cc2c([nH]c3ccccc32)c(-c2ccsc2)n1

Compound: COc1cc(C2NCCc3c2[nH]c2ccccc32)ccc1O (stereo not drawn)
inhibition at 100 µg/mL [24]: 21.6% | inhibition at 100 µg/mL [25]: 22.4%

EC50 [10]: 4.2 µg/mL (≈ 11.9 µM)
Compound: c1ccc(-c2nc(-c3nnc(C4CC4)o3)cc3c2[nH]c2ccccc23)cc1

EC50 [10]: 281 µg/mL (≈ 524 µM)
Compound: COc1cc(-c2nc(NC(=O)Nc3ccc(C(F)(F)F)cc3)cc3c2[nH]c2ccccc23)cc(OC)c1OC

Compound: Cc1nccc2c3ccccc3n(Cc3cn(-c4ccncc4)nn3)c12
Activity [14]: 84.47%

MIC [12]: 100 µg/mL (≈ 446 µM)
Compound: CC(C)Cc1nccc2c1[nH]c1ccccc12

Compound: Cc1nccc2c1[nH]c1ccc([N+](=O)[O-])cc12
Activity [1]: 33.3% | Activity [2]: 31.6%

EC50 [15]: 4.23 µg/mL (≈ 18.9 µM)
Compound: Cc1cc2c3ccccc3n(C(C)C)c2cn1

EC50 [21]: 2.18 µM
Compound: Cn1c2c(c3ccccc31)CC[N+](c1ccc(F)cc1)=C2

MIC [11]: 2.8 µg/mL (≈ 6.13 µM) | MIC [3]: 2.8 µg/mL (≈ 6.13 µM)
Compound: C=CCCCCCCCCCOC(=O)c1cc2c([nH]c3ccccc32)c(-c2ccc(O)cc2)n1

EC50 [21]: 2.68 µM
Compound: Cc1ccc2c(c1)c1c(n2C)C=[N+](c2ccc(Cl)cc2)CC1

EC50 [10]: 131 µg/mL (≈ 246 µM)
Compound: COc1cc(-c2nc(NC(=O)NC(=O)c3c(F)cccc3F)cc3c2[nH]c2ccccc23)cc(OC)c1OC

MIC [12]: 50 µg/mL (≈ 210 µM)
Compound: CCCCCc1nccc2c1[nH]c1ccccc12

EC50 [10]: 293 µg/mL (≈ 486 µM)
Compound: COc1cc(C(=O)NC(=S)Nc2cc3c([nH]c4ccccc43)c(-c3cc(OC)c(OC)c(OC)c3)n2)cc(OC)c1OC

Compound: Oc1ccccc1C1NCCc2c1[nH]c1ccccc21 (stereo not drawn)
inhibition at 100 µg/mL [24]: 21.2% | inhibition at 100 µg/mL [25]: 19.8%
